# Experimental data as given in ChEMBL document CHEMBL4483862, “Open-source discovery of chemical leads for next-generation chemoprotective antimalarials” (2018).
# Test system: Plasmodium berghei
# Assay: Luciferase/luciferin-expressing antifolate-resistant parasites were used to infect a culture of HepG2 cells that were pre-incubated with compounds. Infected hepatocytes emit light due to the luciferase reaction. Assay results are presented as the percent inhibition of light emission compared to control. […]
# Assay type: functional
# Conditions: sporozoite; for IC90: read-out: LUCIFERASE INFECTION ASSAY - IC90
# [1] = read-out: LUCIFERASE INFECTION ASSAY - IC50
SMILES,IC90,further results
COc1ccc(CCNc2nc(CN3CCCC3)nc3sc(C)c(C)c23)cc1,> 10 µM,"IC50 (FFLUC_HILL_SLOPE 4.5, FFLUC_R_SQUARED 0.668, PBLUC_HILL_SLOPE 16.9, PBLUC_R_SQUARED 0.0613, read-out: LUCIFERASE INFECTION ASSAY - IC50): 9.78 µM"
O=S(=O)(Oc1cccc(C(F)(F)F)c1)c1cc(S(=O)(=O)c2ccccc2)cs1,> 7.36 µM,IC50 [1]: > 7.36 µM
Cc1ccc2nc(NC(=O)c3ccc(F)cc3F)c(C(=O)NC3CCCC3)n2c1,2.97 µM,"IC50 (HEPG2TOX_HILL_SLOPE 1.63, HEPG2TOX_R_SQUARED 0.945, PBLUC_HILL_SLOPE 15.6, PBLUC_R_SQUARED 0.398, read-out: LUCIFERASE INFECTION ASSAY - IC50): 2.58 µM"
Nc1c(C(=O)Nc2cccc(F)c2)sc2nc3c(cc12)N1CCC3CC1,> 8.96 µM,"IC50 (PBLUC_HILL_SLOPE 1.17, PBLUC_R_SQUARED 0.5, read-out: LUCIFERASE INFECTION ASSAY - IC50): 1.98 µM"
COCOc1ccc(-c2cc(-c3cccc(NC(C)=O)c3)cnc2N)cc1,5.97 µM,"IC50 (PBLUC_HILL_SLOPE 4.33, PBLUC_R_SQUARED 0.629, read-out: LUCIFERASE INFECTION ASSAY - IC50): 3.59 µM"
O=C(Nc1ccc(-c2nc3ccccc3[nH]2)cc1)C1CCC1,> 10 µM,"IC50 (FFLUC_HILL_SLOPE 0.826, FFLUC_R_SQUARED 0.895, PBLUC_HILL_SLOPE 0.293, PBLUC_R_SQUARED 0.545, read-out: LUCIFERASE INFECTION ASSAY - IC50): 0.543 µM"
O=C(c1cccc(-c2ccncc2)c1)c1cnc(Nc2cccc(Br)c2)[nH]1,2.54 µM,"IC50 (HEPG2TOX_HILL_SLOPE 2.34, HEPG2TOX_R_SQUARED 0.815, PBLUC_HILL_SLOPE 3.59, PBLUC_R_SQUARED 0.729, read-out: LUCIFERASE INFECTION ASSAY - IC50): 1.38 µM"
CC(C)CC(N)c1csc(NC(=O)NC(c2ccccc2)c2ccccc2)n1 (stereo not drawn),3.63 µM,IC50 [1]: 2.93 µM
CN(C)CCNC(=O)c1cccc(-c2cc(-c3ccc(-c4ccccc4)cc3F)cnc2N)c1,> 7.26 µM,"IC50 (PBLUC_HILL_SLOPE 15.7, PBLUC_R_SQUARED 0.255, read-out: LUCIFERASE INFECTION ASSAY - IC50): > 7.26 µM"
COc1cc(-c2ccc3ncc(-c4cccc(OC(F)(F)F)c4)n3n2)cc(OC)c1OC,3.72 µM,"IC50 (PBLUC_HILL_SLOPE 15.5, PBLUC_R_SQUARED 0.302, read-out: LUCIFERASE INFECTION ASSAY - IC50): 3.23 µM"
CC(OC(=O)c1cc2c(s1)-c1ccccc1OC2)C(=O)N1CCNC1=O (stereo not drawn),> 10 µM,"IC50 (PBLUC_HILL_SLOPE 18.2, PBLUC_R_SQUARED 0.638, read-out: LUCIFERASE INFECTION ASSAY - IC50): 9.62 µM"
CC(=O)c1cccc(-c2ccc3ncc(-c4cccc(O)c4)n3n2)c1,3.6 µM,"IC50 (HEPG2TOX_HILL_SLOPE 4.7, HEPG2TOX_R_SQUARED 0.977, PBLUC_HILL_SLOPE 30, PBLUC_R_SQUARED 0.547, read-out: LUCIFERASE INFECTION ASSAY - IC50): 3.34 µM"
CC(=O)c1ccc(-c2ccc(C(=O)N3CCc4sccc4C3)o2)cc1,> 10 µM,"IC50 (PBLUC_HILL_SLOPE 1.84, PBLUC_R_SQUARED 0.357, read-out: LUCIFERASE INFECTION ASSAY - IC50): 4.1 µM"
CC(C)(C)c1ccc(S(=O)(=O)Nc2ccc(O)c(Sc3nc4ccccc4s3)c2)cc1,> 10 µM,"IC50 (HEPG2TOX_HILL_SLOPE 0.314, HEPG2TOX_R_SQUARED 0.616, read-out: LUCIFERASE INFECTION ASSAY - IC50): > 10 µM"
COc1ccc(OS(=O)(=O)c2sc(Br)cc2Br)cc1,3.26 µM,"IC50 (HEPG2TOX_HILL_SLOPE 3.4, HEPG2TOX_R_SQUARED 0.9, PBLUC_HILL_SLOPE 10.6, PBLUC_R_SQUARED 0.653, read-out: LUCIFERASE INFECTION ASSAY - IC50): 2.64 µM"
CC(=O)OC1CCC2(C)C(CCC3C4CCC(C(C)C(=O)OCC(=O)c5ccccc5)C4(C)CC(=O)C32)C1 (stereo not drawn),0.271 µM,"IC50 (HEPG2TOX_HILL_SLOPE 12.9, HEPG2TOX_R_SQUARED 0.919, PBLUC_HILL_SLOPE 10.6, PBLUC_R_SQUARED 0.537, read-out: LUCIFERASE INFECTION ASSAY - IC50): 0.22 µM"
CCOc1ccc(C2=NNC(=Nc3cccc(S(=O)(=O)N(C)C)c3)SC2)cc1,4.99 µM,"IC50 (FFLUC_HILL_SLOPE 1.45, FFLUC_R_SQUARED 0.572, HEPG2TOX_HILL_SLOPE 2.21, HEPG2TOX_R_SQUARED 0.976, PBLUC_HILL_SLOPE 3.43, PBLUC_R_SQUARED 0.708, read-out: LUCIFERASE INFECTION ASSAY - IC50): 2.63 µM"
Cc1nc(Sc2ncnc3sc4c(c23)CCC4)sc1CC(N)=O,1.96 µM,"IC50 (PBLUC_HILL_SLOPE 51.2, PBLUC_R_SQUARED 0.477, read-out: LUCIFERASE INFECTION ASSAY - IC50): 1.88 µM"
CN(C)C(CNc1ncnc2sc(-c3ccccc3)cc12)c1ccco1 (stereo not drawn),> 10 µM,"IC50 (PBLUC_HILL_SLOPE 12.3, PBLUC_R_SQUARED 0.199, read-out: LUCIFERASE INFECTION ASSAY - IC50): 9.76 µM"
Cc1ccccc1-c1noc(CN(C2CCCc3ccccc32)S(C)(=O)=O)n1 (stereo not drawn),> 8.3 µM,"IC50 (HEPG2TOX_HILL_SLOPE 2, HEPG2TOX_R_SQUARED 0.927, PBLUC_HILL_SLOPE 1.37, PBLUC_R_SQUARED 0.678, read-out: LUCIFERASE INFECTION ASSAY - IC50): 1.93 µM"

SMILES,IC90,further results
Cc1c(-c2ccccc2)oc2c(C(=O)N3CCc4ccccc4C3)cccc2c1=O,> 10 µM,"IC50 (PBLUC_HILL_SLOPE 6.24, PBLUC_R_SQUARED 0.0221, read-out: LUCIFERASE INFECTION ASSAY - IC50): > 10 µM"
Cc1nnc(S(=O)(=O)CC(=O)N2CCc3ccccc32)n1C,> 10 µM,"IC50 (FFLUC_HILL_SLOPE 11.6, FFLUC_R_SQUARED 0.688, read-out: LUCIFERASE INFECTION ASSAY - IC50): > 10 µM"
CN(C)C(=O)Oc1ccc2c(-c3ccccc3)cc(=O)oc2c1,> 10.7 µM,"IC50 (PBLUC_HILL_SLOPE 7.62, PBLUC_R_SQUARED 0.0613, read-out: LUCIFERASE INFECTION ASSAY - IC50): > 10.7 µM"
CC(C)(C)c1ccc(-c2cc(NC(=O)c3ccc(Cl)cc3Cl)[nH]n2)cc1,3.08 µM,"IC50 (HEPG2TOX_HILL_SLOPE 2.82, HEPG2TOX_R_SQUARED 0.976, PBLUC_HILL_SLOPE 3.98, PBLUC_R_SQUARED 0.745, read-out: LUCIFERASE INFECTION ASSAY - IC50): 1.77 µM"
Cc1ccc(-c2nc(C(=O)NCCCN(C)C)cc3c2[nH]c2ccccc23)cc1,> 8.54 µM,IC50 [1]: > 8.54 µM
O=[N+]([O-])c1ccc(-c2noc(CCOc3ccc(F)cc3)n2)o1,9.89 µM,"IC50 (PBLUC_HILL_SLOPE 3.03, PBLUC_R_SQUARED 0.707, read-out: LUCIFERASE INFECTION ASSAY - IC50): 4.78 µM"
CCCCCC1/C(=N\O)CC(c2ccccc2)N(C)C1c1ccccc1 (stereo not drawn),> 9.42 µM,"IC50 (FFLUC_HILL_SLOPE 1.59, FFLUC_R_SQUARED 0.859, read-out: LUCIFERASE INFECTION ASSAY - IC50): > 9.42 µM"
COc1cc(Nc2ccn3ncc(-c4ccc(OC(F)(F)F)cc4)c3n2)cc(OC)c1OC,5.74 µM,"IC50 (PBLUC_HILL_SLOPE 5.07, PBLUC_R_SQUARED 0.236, read-out: LUCIFERASE INFECTION ASSAY - IC50): 3.72 µM"
CCCc1nc2oc3cc(OC)ccc3c(=O)c2c(=O)n1Cc1ccco1,> 9.01 µM,"IC50 (PBLUC_HILL_SLOPE 1.9, PBLUC_R_SQUARED 0.121, read-out: LUCIFERASE INFECTION ASSAY - IC50): 5.6 µM"
CCN(CC)C(CNC(=O)c1ccc2c(c1)OCC(=O)N2)c1ccccc1Cl (stereo not drawn),8.02 µM,"IC50 (PBLUC_HILL_SLOPE 4.94, PBLUC_R_SQUARED 0.519, read-out: LUCIFERASE INFECTION ASSAY - IC50): 5.14 µM"
COc1ccc(-c2nn(-c3ccccc3)cc2/C=C/C(=O)OCc2ncc(Cl)n2C)cc1OC,> 10 µM,IC50 [1]: > 10 µM
Clc1ccc(CNc2ncnc3sccc23)cc1,> 10 µM,IC50 [1]: 3.31 µM
CC(Nc1ncnc2sccc12)c1ccc(-n2cncn2)cc1 (stereo not drawn),> 10 µM,"IC50 (HEPG2TOX_HILL_SLOPE 0.68, HEPG2TOX_R_SQUARED 0.808, PBLUC_HILL_SLOPE 0.888, PBLUC_R_SQUARED 0.682, read-out: LUCIFERASE INFECTION ASSAY - IC50): 1.95 µM"
O=C(COc1ccccc1-c1ccccc1)NCC1CCCCC1,> 10 µM,IC50 [1]: > 10 µM
O=C(/C(=N/Nc1ccc([N+](=O)[O-])cc1)C(=O)C(F)(F)F)c1cccs1,1 µM,"IC50 (HEPG2TOX_HILL_SLOPE 2.64, HEPG2TOX_R_SQUARED 0.853, PBLUC_HILL_SLOPE 14.9, PBLUC_R_SQUARED 0.662, read-out: LUCIFERASE INFECTION ASSAY - IC50): 0.866 µM"
CCCCNC(=O)c1c(NC(=O)c2cc(F)ccc2F)nc2ccccn12,3.57 µM,"IC50 (HEPG2TOX_HILL_SLOPE 2.83, HEPG2TOX_R_SQUARED 0.745, PBLUC_HILL_SLOPE 13.2, PBLUC_R_SQUARED 0.5, read-out: LUCIFERASE INFECTION ASSAY - IC50): 3.03 µM"
CCCn1c(NC(=O)Cc2csc(NC(=O)c3ccco3)n2)nc2ccccc21,> 10 µM,"IC50 (PBLUC_HILL_SLOPE 1.19, PBLUC_R_SQUARED 0.0275, read-out: LUCIFERASE INFECTION ASSAY - IC50): > 10 µM"
CNC(=S)Nc1cc(C(F)(F)F)cc(C(F)(F)F)c1,8.33 µM,"IC50 (PBLUC_HILL_SLOPE 3.27, PBLUC_R_SQUARED 0.572, read-out: LUCIFERASE INFECTION ASSAY - IC50): 4.26 µM"
OCc1ccccc1-c1cn2c(-c3ccc4c(c3)OCO4)cnc2cn1,> 9.56 µM,"IC50 (HEPG2TOX_HILL_SLOPE 2.34, HEPG2TOX_R_SQUARED 0.695, PBLUC_HILL_SLOPE 2.89, PBLUC_R_SQUARED 0.35, read-out: LUCIFERASE INFECTION ASSAY - IC50): 8.14 µM"
